# In ChEMBL document CHEMBL4814078, “Novel CFTR Modulators for Treating Cystic Fibrosis” (ACS Med Chem Lett, 2021):
# Target: Cystic fibrosis transmembrane conductance regulator (Homo sapiens, UniProt P13569)
# Test: Potentiation of CFTR in primary human epithelial enteroid cells assessed as chloride transport in presence of forskolin by measuring membrane potential incubated for 18 to 24 hrs by FLIPR Tetra based dye assay
# Format: tissue-based, Epithelial cell
# Cystic fibrosis transmembrane conductance regulator, sequence (P13569 whole entry): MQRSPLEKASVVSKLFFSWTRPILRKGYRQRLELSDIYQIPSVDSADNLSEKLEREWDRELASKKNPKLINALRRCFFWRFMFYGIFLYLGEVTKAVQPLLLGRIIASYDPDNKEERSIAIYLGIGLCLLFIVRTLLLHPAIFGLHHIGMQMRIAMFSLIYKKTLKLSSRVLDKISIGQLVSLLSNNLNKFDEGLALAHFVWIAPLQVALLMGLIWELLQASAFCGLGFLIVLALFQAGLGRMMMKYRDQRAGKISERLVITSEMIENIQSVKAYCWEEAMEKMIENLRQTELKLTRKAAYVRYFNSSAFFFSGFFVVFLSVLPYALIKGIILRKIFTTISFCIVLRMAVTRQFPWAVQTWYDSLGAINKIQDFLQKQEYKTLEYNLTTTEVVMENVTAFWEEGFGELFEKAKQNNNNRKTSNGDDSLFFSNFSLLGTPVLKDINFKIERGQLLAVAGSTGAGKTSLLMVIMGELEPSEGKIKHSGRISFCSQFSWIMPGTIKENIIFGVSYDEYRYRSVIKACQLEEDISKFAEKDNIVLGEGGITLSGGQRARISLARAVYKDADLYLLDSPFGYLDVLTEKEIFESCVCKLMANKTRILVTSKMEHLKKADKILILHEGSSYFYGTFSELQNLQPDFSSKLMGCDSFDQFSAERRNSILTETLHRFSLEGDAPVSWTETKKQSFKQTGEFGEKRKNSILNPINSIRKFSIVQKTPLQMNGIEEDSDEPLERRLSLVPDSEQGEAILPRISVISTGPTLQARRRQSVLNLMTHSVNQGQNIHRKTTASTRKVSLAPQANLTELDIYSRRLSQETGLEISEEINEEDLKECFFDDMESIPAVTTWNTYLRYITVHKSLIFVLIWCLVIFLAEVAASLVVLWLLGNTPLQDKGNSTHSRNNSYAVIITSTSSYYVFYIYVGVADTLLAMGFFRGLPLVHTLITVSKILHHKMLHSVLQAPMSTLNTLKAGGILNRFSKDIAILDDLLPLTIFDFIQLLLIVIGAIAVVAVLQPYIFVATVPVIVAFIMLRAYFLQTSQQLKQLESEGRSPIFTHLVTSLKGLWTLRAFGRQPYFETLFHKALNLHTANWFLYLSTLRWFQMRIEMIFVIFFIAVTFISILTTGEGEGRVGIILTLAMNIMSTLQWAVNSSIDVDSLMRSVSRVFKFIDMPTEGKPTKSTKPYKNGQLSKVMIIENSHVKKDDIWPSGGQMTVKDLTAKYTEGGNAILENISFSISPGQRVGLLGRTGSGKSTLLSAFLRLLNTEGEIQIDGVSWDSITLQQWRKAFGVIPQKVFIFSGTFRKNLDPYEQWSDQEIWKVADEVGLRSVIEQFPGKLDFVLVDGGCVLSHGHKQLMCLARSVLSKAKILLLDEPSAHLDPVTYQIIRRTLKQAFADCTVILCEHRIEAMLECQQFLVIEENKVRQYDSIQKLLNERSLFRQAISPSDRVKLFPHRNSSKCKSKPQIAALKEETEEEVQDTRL
row,Compound,EC50
1,CC1(C)C[C@@H]2CCCNc3cccc(n3)S(=O)(=O)NC(=O)c3ccc(-n4ccc(OC[Si](C)(C)C)n4)nc3N1C2,< 1000 nM
2,CC1(C)C[C@@H]2CCCNc3cccc(n3)S(=O)(=O)NC(=O)c3ccc(-n4ccc(OCCC5([Si](C)(C)C)CC5)n4)nc3N1C2,< 1000 nM
3,CC1(C)C[C@@H]2CCCNc3cccc(n3)S(=O)(=O)NC(=O)c3ccc(-n4ccc(OCC[Si](C)(C)C)n4)nc3N1C2,< 1000 nM
4,CC1(C)C[C@@H]2CCCNc3cccc(n3)S(=O)(=O)NC(=O)c3ccc(-n4ccc(OC[Si](C)(C)C5(C(F)(F)F)CC5)n4)nc3N1C2,< 1000 nM
5,CC1(C)C[C@@H]2CCCNc3cccc(n3)S(=O)(=O)NC(=O)c3ccc(-n4ccc(OCCC[Si](C)(C)C)n4)nc3N1C2,< 1000 nM
6,CC(C)(C)CC[Si](C)(C)c1ccn(-c2ccc3c(n2)N2C[C@@H](CCCNc4cccc(n4)S(=O)(=O)NC3=O)CC2(C)C)n1,< 1000 nM
